Structures can show the parent of a compound that is named as a salt.
Experiments:
CCR3 = target: T1, CCR3 (Homo sapiens, UniProt P51677); assay: Human eosinophil chemotaxis (eotaxin mediated); assay type: cell-based; details: read-out: % inhibition at 3 nM eotaxin (1 uM compound), human eosinophils
T1 construct: Human eosinophils were isolated from EDTA anticoagulated peripheral blood; endogenous in cells; host or cells: human peripheral blood eosinophils
T1 sequence (P51677 1-355): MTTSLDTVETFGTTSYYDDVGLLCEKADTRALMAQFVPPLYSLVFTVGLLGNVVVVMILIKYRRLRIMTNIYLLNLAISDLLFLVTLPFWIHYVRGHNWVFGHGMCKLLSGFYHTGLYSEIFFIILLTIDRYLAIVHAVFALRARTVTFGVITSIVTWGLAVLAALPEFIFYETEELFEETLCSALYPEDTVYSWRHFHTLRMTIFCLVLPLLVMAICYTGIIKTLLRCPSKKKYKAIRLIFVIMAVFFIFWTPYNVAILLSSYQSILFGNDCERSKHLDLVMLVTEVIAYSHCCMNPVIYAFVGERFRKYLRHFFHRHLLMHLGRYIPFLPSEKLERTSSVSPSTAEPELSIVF

human H1 receptor = target: T2, human H1 receptor (Homo sapiens, UniProt P35367); assay: Histamine H1 receptor binding, competition displacement of [3H]-pyrilamine; details: 1 nM [3H]-pyrilamine; membranes from recombinant CHO-K1 cells expressing the human H1 receptor; read-out: H1 pKi/[1328_S] (converted)
T2 construct: purchased Euroscreen SA, Brussels, Belgium ES-390-M; host or cells: recombinant CHO-K1 cells (membranes)
T2 sequence (P35367 whole entry): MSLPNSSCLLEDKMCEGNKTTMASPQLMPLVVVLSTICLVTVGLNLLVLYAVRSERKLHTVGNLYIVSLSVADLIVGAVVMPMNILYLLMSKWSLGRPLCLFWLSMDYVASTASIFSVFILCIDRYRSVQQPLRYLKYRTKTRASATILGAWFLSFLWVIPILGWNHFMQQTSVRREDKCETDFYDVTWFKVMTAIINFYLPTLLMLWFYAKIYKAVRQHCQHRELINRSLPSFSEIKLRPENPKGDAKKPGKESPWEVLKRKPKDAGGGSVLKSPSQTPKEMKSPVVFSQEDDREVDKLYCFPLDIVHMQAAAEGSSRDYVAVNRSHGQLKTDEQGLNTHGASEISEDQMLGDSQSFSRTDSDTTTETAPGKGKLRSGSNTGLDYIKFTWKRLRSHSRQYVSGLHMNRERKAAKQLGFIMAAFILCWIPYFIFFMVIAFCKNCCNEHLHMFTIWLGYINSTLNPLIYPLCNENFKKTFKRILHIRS

Structure (SMILES)	inhibition at 1 µM (CCR3) [%]	Ki (human H1 receptor) [nM]
Cc1c(Cl)ccc(OC2CCN(C[C@H](O)CNC(=O)c3c[nH]c(=O)c4cc(S(C)(=O)=O)ccc34)CC2)c1Cl [Example 215, N-{(2R)-3-[4-(2,4-Dichloro-3-methylphenoxy)piperidin-1-yl]-2-hydroxypropyl}-7-(methylsulfonyl)-1-oxo-1,2-dihydroisoquinoline-4-carboxamide acetate salt]	103	
O=C(NC[C@@H](O)CN1CCC(Oc2ccc(Cl)c(Cl)c2)CC1)c1c[nH]c(=O)c2ccccc12 [Example 10, N-{(2R)-3-[4-(3,4-Dichlorophenoxy)piperidin-1-yl]-2-hydroxypropyl}-1-oxo-1,2-dihydroisoquinoline-4-carboxamide]	106	
N#Cc1ccc(OC2CCN(C[C@H](O)CNC(=O)c3c[nH]c(=O)c4ccccc34)CC2)cc1Cl [Example 197, N-{(2R)-3-[4-(3-Chloro-4-cyanophenoxy)piperidin-1-yl]-2-hydroxypropyl}-1-oxo-1,2-dihydroisoquinoline-4-carboxamide]	103	
O=C(NC[C@@H](O)CN1CCC(Oc2ccc(Cl)c(Cl)c2)CC1)n1c(=O)[nH]c2ccccc21 [Example 45, N-{3-[4-(3,4-Dichlorophenoxy)piperidin-1-yl]-2-hydroxypropyl}-2-oxo-2,3-dihydro-1H-benzimidazole-1-carboxamide]	102	
O=C(NC[C@@H](O)CN1CCC(Oc2ccc(Cl)c(Cl)c2)CC1)c1c[nH]c2ccccc12 [Example 47, N-{(2R)-3-[4-(3,4-Dichlorophenoxy)piperidin-1-yl]-2-hydroxypropyl}-1H-indole-3-carboxamide]	104	7.94
CN(C[C@@H](O)CN1CCC(Oc2ccc(Cl)c(Cl)c2)CC1)C(=O)c1n[nH]c2ccccc12 [Example 53, N-{(2S)-3-[4-(3,4-Dichlorophenoxy)piperidin-1-yl]-2-hydroxypropyl}-N-methyl-1H-indazole-3-carboxamide]	105	7.94
CN(C[C@@H](O)CN1CCC(Oc2ccc(Cl)c(Cl)c2)CC1)C(=O)c1c[nH]c(=O)c2ccccc12 [Example 52, N-{(2S)-3-[4-(3,4-Dichlorophenoxy)piperidin-1-yl]-2-hydroxypropyl}-N-methyl-1-oxo-1,2-dihydroisoquinoline-4-carboxamide]	95	3.98
CS(=O)(=O)c1ccc2c(C(=O)NC[C@@H](O)CN3CCC(Oc4ccc(C#N)c(Cl)c4)CC3)c[nH]c(=O)c2c1 [Example 206, N-{(2R)-3-[4-(3-Chloro-4-cyanophenoxy)piperidin-1-yl]-2-hydroxypropyl}-7-(methylsulfonyl)-1-oxo-1,2-dihydroisoquinoline-4-carboxamide]	99	
Cc1cc(Cl)ccc1OC1CCN(C[C@@H](O)CNC(=O)c2c[nH]c(=O)c3ccccc23)CC1 [Example 186, N-{(2S)-3-[4-(4-Chloro-2-methylphenoxy)piperidin-1-yl]-2-hydroxypropyl}-1-oxo-1,2-dihydroisoquinoline-4-carboxamide acetate salt]	104	12.6
NC(=O)c1c(OC2CCN(C[C@H](O)CNC(=O)c3c[nH]c(=O)c4ccccc34)CC2)ccc(Cl)c1Cl [Example 132]	101	
O=C(NC[C@@H](O)CN1CCC(Oc2ccc(Cl)c(Cl)c2)CC1)[C@@H](O)c1ccccc1 [Example 58, (2S)-N-{(2R)-3-[4-(3,4-Dichlorophenoxy)piperidin-1-yl]-2-hydroxypropyl}-2-hyroxy-2-phenylethanamide]	104	63.1
O=C(NC[C@@H](O)CN1CCC(Oc2ccc(Cl)c(Cl)c2)CC1)c1n[nH]c(=O)c2ccccc12 [Example 46, N-{(2R)-3-[4-(3,4-Dichlorophenoxy)piperidin-1-yl]-2-hydroxypropyl}-oxo-3,4-dihydrophthalazine-1-carboxamide]	105	
Cc1c(Cl)ccc(OC2CCN(C[C@H](O)CNC(=O)c3c[nH]c(=O)c4ccccc34)CC2)c1Cl [Example 17, N-{(2R)-3-[4-(2,4-Dichloro-3-methylphenoxy)piperidin-1-yl]-2-hydroxypropyl}-1-oxo-1,2-dihydroisoquinoline-4-carboxamide]	103	7.94

From patent US7709500B2, “Chemical compounds” (AstraZeneca AB, priority 2002, dated 2010)
